Data reported in PubChem BioAssay (NCI).
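Compound exposure: 48 hours, 5 concentrations, 96-well plates. Abbreviation: GI50, concentration required for 50% inhibition of growth. At the TGI there is no net growth.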

Legend:
Test in all cases: NCI anticancer screen, dose series, 48 h
DLD-1 colon = test system: DLD-1 colon
MOLT-4 leukemia = test system: MOLT-4 leukemia
RPMI-8226 leukemia = test system: RPMI-8226 leukemia
DMS 273 small cell lung = test system: DMS 273 small cell lung
MALME-3M melanoma = test system: MALME-3M melanoma
HOP-62 NSCLC = test system: HOP-62 NSCLC
TK-10 renal = test system: TK-10 renal
NCI-H460 lung = test system: NCI-H460 lung
IGROV1 ovarian = test system: IGROV1 ovarian
SNB-19 CNS = test system: SNB-19 CNS
EKVX NSCLC = test system: EKVX NSCLC
UO-31 renal = test system: UO-31 renal
786-0 renal = test system: 786-0 renal
SNB-75 CNS = test system: SNB-75 CNS
U251 CNS = test system: U251 CNS
LOX IMVI melanoma = test system: LOX IMVI melanoma
OVCAR-8 ovarian = test system: OVCAR-8 ovarian
HCT-15 colon = test system: HCT-15 colon
KM12 colon = test system: KM12 colon
HOP-92 NSCLC = test system: HOP-92 NSCLC
A498 renal = test system: A498 renal
HOP-18 NSCLC = test system: HOP-18 NSCLC
OVCAR-5 ovarian = test system: OVCAR-5 ovarian
CAKI-1 renal = test system: CAKI-1 renal
RXF 393 renal = test system: RXF 393 renal
OVCAR-3 ovarian = test system: OVCAR-3 ovarian
NCI-H522 lung = test system: NCI-H522 lung
SF-295 CNS = test system: SF-295 CNS
SK-MEL-28 melanoma = test system: SK-MEL-28 melanoma
NCI-H226 lung = test system: NCI-H226 lung
SW-620 colon = test system: SW-620 colon
SNB-78 CNS = test system: SNB-78 CNS
SK-MEL-5 melanoma = test system: SK-MEL-5 melanoma
LXFL 529 NSCLC = test system: LXFL 529 NSCLC
SN12C renal = test system: SN12C renal
HCT-116 colon = test system: HCT-116 colon
CCRF-CEM leukemia = test system: CCRF-CEM leukemia
SK-OV-3 ovarian = test system: SK-OV-3 ovarian
HCC-2998 colon = test system: HCC-2998 colon
SF-268 CNS = test system: SF-268 CNS
UACC-62 melanoma = test system: UACC-62 melanoma
NCI-H23 lung = test system: NCI-H23 lung
COLO 205 colon = test system: COLO 205 colon
SK-MEL-2 melanoma = test system: SK-MEL-2 melanoma
SF-539 CNS = test system: SF-539 CNS
UACC-257 melanoma = test system: UACC-257 melanoma
KM20L2 colon = test system: KM20L2 colon
OVCAR-4 ovarian = test system: OVCAR-4 ovarian
K-562 leukemia = test system: K-562 leukemia
ACHN renal = test system: ACHN renal
HT29 colon = test system: HT29 colon
M14 melanoma = test system: M14 melanoma
A549 NSCLC = test system: A549 NSCLC
HL-60(TB) leukemia = test system: HL-60(TB) leukemia

`CCC(C(=O)[O-])C(=O)[O-].CCC(C(=O)[O-])C(=O)[O-].N.N.NCCCCCN.[Pt+4].[Pt+4]` was tested, and the GI50 (DLD-1 colon) was > 100 µM, the TGI (DLD-1 colon) was > 100 µM and the GI50 (MOLT-4 leukemia) was 84.3 µM. For the same molecule, the TGI (MOLT-4 leukemia) was > 100 µM, the GI50 (RPMI-8226 leukemia) was > 100 µM and the TGI (RPMI-8226 leukemia) was > 100 µM. For the same molecule, the GI50 (DMS 273 small cell lung) was 95.8 µM, the TGI (DMS 273 small cell lung) was > 100 µM and the GI50 (MALME-3M melanoma) was > 100 µM. The TGI (MALME-3M melanoma) was > 100 µM, the GI50 (HOP-62 NSCLC) was > 100 µM and the TGI (HOP-62 NSCLC) was > 100 µM. The GI50 (TK-10 renal) was > 100 µM, the TGI (TK-10 renal) was > 100 µM and the GI50 (NCI-H460 lung) was 21.3 µM. The TGI (NCI-H460 lung) was > 100 µM, the GI50 (IGROV1 ovarian) was > 100 µM and the TGI (IGROV1 ovarian) was > 100 µM. The GI50 (SNB-19 CNS) was > 100 µM, the TGI (SNB-19 CNS) was > 100 µM and the GI50 (EKVX NSCLC) was > 100 µM. The TGI (EKVX NSCLC) was > 100 µM, the GI50 (UO-31 renal) was > 100 µM and the TGI (UO-31 renal) was > 100 µM. The GI50 (786-0 renal) was > 100 µM, the TGI (786-0 renal) was > 100 µM and the GI50 (SNB-75 CNS) was > 100 µM. For the same molecule, the TGI (SNB-75 CNS) was > 100 µM, the GI50 (U251 CNS) was > 100 µM and the TGI (U251 CNS) was > 100 µM. The GI50 (LOX IMVI melanoma) was > 100 µM, the TGI (LOX IMVI melanoma) was > 100 µM and the GI50 (OVCAR-8 ovarian) was > 100 µM. For the same molecule, the TGI (OVCAR-8 ovarian) was > 100 µM, the GI50 (HCT-15 colon) was > 100 µM and the TGI (HCT-15 colon) was > 100 µM. For the same molecule, the GI50 (KM12 colon) was > 100 µM, the TGI (KM12 colon) was > 100 µM and the GI50 (HOP-92 NSCLC) was > 100 µM. For the same molecule, the TGI (HOP-92 NSCLC) was > 100 µM, the GI50 (A498 renal) was > 100 µM and the TGI (A498 renal) was > 100 µM. For the same molecule, the GI50 (HOP-18 NSCLC) was > 100 µM, the TGI (HOP-18 NSCLC) was > 100 µM and the GI50 (OVCAR-5 ovarian) was > 100 µM. For the same molecule, the TGI (OVCAR-5 ovarian) was > 100 µM, the GI50 (CAKI-1 renal) was > 100 µM and the TGI (CAKI-1 renal) was > 100 µM. The GI50 (RXF 393 renal) was > 100 µM, the TGI (RXF 393 renal) was > 100 µM and the GI50 (OVCAR-3 ovarian) was > 100 µM. The TGI (OVCAR-3 ovarian) was > 100 µM, the GI50 (NCI-H522 lung) was > 100 µM and the TGI (NCI-H522 lung) was > 100 µM. The GI50 (SF-295 CNS) was > 100 µM, the TGI (SF-295 CNS) was > 100 µM and the GI50 (SK-MEL-28 melanoma) was > 100 µM. For the same molecule, the TGI (SK-MEL-28 melanoma) was > 100 µM, the GI50 (NCI-H226 lung) was 23.4 µM and the TGI (NCI-H226 lung) was 94.7 µM. The GI50 (SW-620 colon) was > 100 µM, the TGI (SW-620 colon) was > 100 µM and the GI50 (SNB-78 CNS) was > 100 µM. For the same molecule, the TGI (SNB-78 CNS) was > 100 µM, the GI50 (SK-MEL-5 melanoma) was > 100 µM and the TGI (SK-MEL-5 melanoma) was > 100 µM. The GI50 (LXFL 529 NSCLC) was > 100 µM, the TGI (LXFL 529 NSCLC) was > 100 µM and the GI50 (SN12C renal) was 15 µM. For the same molecule, the TGI (SN12C renal) was 87.3 µM, the GI50 (HCT-116 colon) was > 100 µM and the TGI (HCT-116 colon) was > 100 µM. For the same molecule, the GI50 (CCRF-CEM leukemia) was 55.9 µM, the TGI (CCRF-CEM leukemia) was > 100 µM and the GI50 (SK-OV-3 ovarian) was > 100 µM. The TGI (SK-OV-3 ovarian) was > 100 µM, the GI50 (HCC-2998 colon) was > 100 µM and the TGI (HCC-2998 colon) was > 100 µM. The GI50 (SF-268 CNS) was > 100 µM, the TGI (SF-268 CNS) was > 100 µM and the GI50 (UACC-62 melanoma) was 38.3 µM. The TGI (UACC-62 melanoma) was > 100 µM, the GI50 (NCI-H23 lung) was > 100 µM and the TGI (NCI-H23 lung) was > 100 µM. The GI50 (COLO 205 colon) was 47.8 µM, the TGI (COLO 205 colon) was > 100 µM and the GI50 (SK-MEL-2 melanoma) was > 100 µM. For the same molecule, the TGI (SK-MEL-2 melanoma) was > 100 µM, the GI50 (SF-539 CNS) was > 100 µM and the TGI (SF-539 CNS) was > 100 µM. The GI50 (UACC-257 melanoma) was > 100 µM, the TGI (UACC-257 melanoma) was > 100 µM and the GI50 (KM20L2 colon) was > 100 µM. For the same molecule, the TGI (KM20L2 colon) was > 100 µM, the GI50 (OVCAR-4 ovarian) was > 100 µM and the TGI (OVCAR-4 ovarian) was > 100 µM. For the same molecule, the GI50 (K-562 leukemia) was > 100 µM, the TGI (K-562 leukemia) was > 100 µM and the GI50 (ACHN renal) was 72.6 µM. For the same molecule, the TGI (ACHN renal) was > 100 µM, the GI50 (HT29 colon) was > 100 µM and the TGI (HT29 colon) was > 100 µM. For the same molecule, the GI50 (M14 melanoma) was > 100 µM, the TGI (M14 melanoma) was > 100 µM and the GI50 (A549 NSCLC) was > 100 µM. For the same molecule, the TGI (A549 NSCLC) was > 100 µM, the GI50 (HL-60(TB) leukemia) was 43.1 µM and the TGI (HL-60(TB) leukemia) was > 100 µM.
